Results as given in PMC4598118 (PLoS ONE, 2015).
“And” between values parts separate entries of the source, which are not always exact repeats. Equal values may be shown once. Read-outs that look alike come from different tables or passages of the source. Marks after values point to notes of the source that are not given here.

Columns and labels:
[1] = biological target: Aedes aegypti AChE1 (AaAChE1) (Aedes aegypti, UniProt Q6A2E2); type: biochemical
[2] = biological target: Anopheles gambiae AChE1 (AgAChE1) (Anopheles gambiae, UniProt Q869C3); type: biochemical
[3] = biological target: T1, Anopheles gambiae AChE1-G119S (Anopheles gambiae, UniProt Q869C3, G280S); type: biochemical
[4] = biological target: T2, Mus musculus AChE (mAChE) (Mus musculus, UniProt P21836); type: biochemical
[5] = biological target: T3, Homo sapiens AChE (hAChE) (Homo sapiens, UniProt P22303); type: biochemical
[6] = biological target: T1, Anopheles gambiae AChE1-G119S; settings: cited from earlier work
[7] = biological target: T2, Mus musculus AChE (mAChE); settings: cited from earlier work
[8] = biological target: T3, Homo sapiens AChE (hAChE); settings: cited from earlier work
AaAChE1 [9] = biological target: T4, AaAChE1 (Aedes aegypti, UniProt Q6A2E2); assay: biochemical
mAChE [10] = biological target: T5, mAChE (Mus musculus, UniProt P21836); settings: read-out: IC 50-values of reversible inhibitors; cited from earlier work
hAChE [11] = biological target: T6, hAChE (Homo sapiens, UniProt P22303); settings: read-out: IC 50-values of reversible inhibitors; cited from earlier work
AaAChE1 [12] = biological target: T4, AaAChE1; type: biochemical
AgAChE1 = AgAChE1 (Anopheles gambiae, UniProt Q869C3); type: biochemical
AgAChE1-G119S [13] = biological target: T7, AgAChE1-G119S (Anopheles gambiae, UniProt Q869C3, G280S); type: biochemical
mAChE [14] = biological target: T5, mAChE; type: biochemical
hAChE [15] = biological target: T6, hAChE; type: biochemical
[16] = tested on: AChE1 vs vertebrate AChEs; type: biochemical
mAChE [17] = biological target: T5, mAChE; assay: biochemical; settings: IC 50-values of reversible inhibitors
AgAChE1-G119S [18] = biological target: T7, AgAChE1-G119S; settings: cited from earlier work

## CC(=O)SCC[N+](C)(C)C [ATChI, acetylthiocholine iodide]
[1]
  Km: 25 µM
  Vmax: 406 (389–422) mA/min
  Vmax in percent of Vmax(ATChI): 100^a percent of Vmax(ATChI)
[2]
  Km: 27 µM
  Vmax: 528 (505–552) mA/min
  Vmax in percent of Vmax(ATChI): 100^a percent of Vmax(ATChI)
[3]
  Vmax: 318 (310–326) mA/min
  Vmax in percent of Vmax(ATChI): 100^a percent of Vmax(ATChI)
[4]
  Km: 84 µM
  Vmax: 725 (694–756) mA/min
  Vmax in percent of Vmax(ATChI): 100^a percent of Vmax(ATChI)
[5]
  Km: 146 µM
  Vmax: 821 (782–860) mA/min
  Vmax in percent of Vmax(ATChI): 100^a percent of Vmax(ATChI)
[6]
  Kcat: 4^b s^-1
[7]
  Kcat: 2333^c s^-1
[8]
  Kcat: 6167^d s^-1

## CCCC(=O)SCC[N+](C)(C)C [BTChI, butyrylthiocholine iodide]
[1]
  Km: 45 µM
  Vmax: 38 (36–40) mA/min
[2]
  Km: 36 µM
  Vmax: 58 (55–61) mA/min
[3]
  Vmax: 34 (24–45) mA/min

## CCN1CCC[C@@H]1CNC(=O)c1cc([N+](=O)[O-])c(N(C)C)cc1OC [C5685R]
AaAChE1 [9]
  IC50: > 30 µM
mAChE [10]
  IC50: 0.7 µM
hAChE [11]
  IC50: 1.3 µM

## CCN1CCC[C@H]1CNC(=O)c1cc([N+](=O)[O-])c(N(C)C)cc1OC [C5685S]
mAChE [10]
  IC50: 0.7 µM
hAChE [11]
  IC50: 1.4 µM

## CNC(=O)Oc1ccc2c(c1)[C@]1(C)CCN(C)[C@@H]1N2C [Eserine, eserine]
AaAChE1 [12]
  ki-values of covalent inhibitors: 24.8 (18.1–31.5) μM^-1 min^-1 and 24,8 μM^-1 min^-1
AgAChE1
  ki-values of covalent inhibitors: 27.3 (23.8–30.8) μM^-1 min^-1 and 27,26 μM^-1 min^-1
AgAChE1-G119S [13]
  ki-values of covalent inhibitors: 1.18 (0.63–1.72) μM^-1 min^-1 and 1,18 μM^-1 min^-1
mAChE [14]
  ki-values of covalent inhibitors: 1.36 (1.15–1.56) μM^-1 min^-1 and 1,36 μM^-1 min^-1
hAChE [15]
  ki-values of covalent inhibitors: 2.66 (2.28–3.05) μM^-1 min^-1 and 2,66 μM^-1 min^-1
[16]
  fold more potent on AChE1 than on vertebrate AChEs (k i): approximately 10 fold

## CCN(CC)C(C)CN1c2ccccc2Sc2ccccc21 (centres unmarked) [Ethopropazine, ethopropazine]
mAChE [17]
  IC50: ~1000 µM

## CCC(=O)SCC[N+](C)(C)C [PTChI, propionylthiocholine iodide]
[1]
  Km: 20 µM
  Vmax: 266 (258–275) mA/min
  Vmax in percent of Vmax(ATChI): 65,5^a percent of Vmax(ATChI)
[2]
  Km: 25 µM
  Vmax: 407 (393–421) mA/min
  Vmax in percent of Vmax(ATChI): 77,1^a percent of Vmax(ATChI)
[3]
  Vmax: 105 (87–123) mA/min
[4]
  Km: 59 µM
  Vmax: 367 (354–380) mA/min
  Vmax in percent of Vmax(ATChI): 50,6^a percent of Vmax(ATChI)
[5]
  Km: 150 µM
  Vmax: 429 (415–442) mA/min
  Vmax in percent of Vmax(ATChI): 52,3^a percent of Vmax(ATChI)

## CNC(=O)Oc1ccccc1OC(C)C [Propoxur, propoxur]
AaAChE1 [12]
  ki-values of covalent inhibitors: 1.20 (1.05–1.35) μM^-1 min^-1 and 1,2 μM^-1 min^-1
AgAChE1
  ki-values of covalent inhibitors: 1.11 (1.02–1.21) μM^-1 min^-1 and 1,11 μM^-1 min^-1
AgAChE1-G119S [13]
  inhibition of the G119S mutant: only marginal inhibition
[16]
  fold lower inhibition constants than eserine: 15–30 fold
  fold more potent on AChE1 than on vertebrate AChEs (k i): approximately 10 fold
AgAChE1-G119S [18]
  ki: 0,00015^b µM^-1 min^-1
